In assay [1] the test system is mice. As to the kind of experiment: Exendin-4 oral spray prior to meals, food intake. Type of assay: in vivo. An excerpt:
PYY and GLP-1 are both produced in […] L-cells and secreted simultaneously into the blood stream in response to nutrient uptake. […] Similarly, a decrease in food intake of mice given Exendin-4 (Ex-4), a GLP-1 analog, in the form of an oral spray prior to meals was observed. Both of these peptides individually modulate body weight, we have evidence that, when used in combination, PYY and Ex-4 may have a synergistic effect on modulation of body weight.

In assay [2] the test system is mice. As to the kind of experiment: PYY mouth spray, food intake after 24 hours fasting. The format is in vivo. The method, then: FIGS. 4A-4D depict the effects of Peptide YY Mouth Spray.
Synthetic PYY was purchased from Bachem, Inc USA (Cat #H-6042) and diluted in sterile H2O. Sterile un-used perfume sample vials (Saphora) were utilized to administer PYY in the form of a mouth spray. It was estimated that the volume of one spray approximates to about […].
Mice were conditioned three times to 24 hours fasting starting at the beginning of the dark cycle and ending at the end of the light cycle. At the end of the fasting cycle and as a part of conditioned routine, a sterile water spray had been administered into the mouth. All the experiments were done during the first hour of the dark cycle after fasting. Once the dark cycle started, mice were sprayed once with either PYY or sterile H2O in a total volume of […] per spray. After the treatment, mice were returned to their cages and ten minutes later pre-weighted chow was provided. One hour later, the amount of consumed chow had been recorded by measuring the leftover amount. When the experiments were repeated, mice were fasted only once a week with the control and experimental groups rotated.

As to Exendin-4, the food intake result with mice [1] is “decrease”.
“PYY: Synthetic PYY purchased from Bachem (Cat #H-6042), diluted in sterile H2O, given as mouth spray [Peptide YY]”: in the assay on mice [2] (after PYY mouth spray vs sterile H2O), the “overall 24 hr period FI, experimental vs control group” value was “similar”. Also, the “PYY dose response effect to FI” value in the assay on mice [2] (mouth spray, FI measured after one hour) is listed as “significant”. Besides, the “less food consumed in one hour compared to control group sprayed with H2O” value in the assay on mice [2] (one mouth spray, 5 μg per 100 g of body weight, after 24 hours fasting, average) is given as 15%.

The values are drawn from patent US11311633B2, “Satiation peptides for weight loss and altered taste sensitivity” (University of Florida Research Foundation, Incorporated, priority 2016, dated 2022).
